Reference: US10377717B2, “Farnesoid X receptor agonists and uses thereof” (Metacrine, Inc., priority 2015, dated 2019)

Target: hFXR (Homo sapiens (Human), UniProt Q96RI1)
Assay: In Vitro FXR Assay (TK), luciferase reporter in transfected CV-1 cells
Assay type: cell-based
Conditions: TK-ECRE-luc reporter, hFXR/hRXR, 18 hrs, maximum efficacy <25% of Fexaramine control classified as '+'
Protocol: CV-1 cells were seeded at a density of 2,000,000 cells in a T175 flask with DMEM+10% charcoal double-stripped FBS and incubated at 37° C. in 5% CO2 for 18 h (O/N).
After 18 h of incubation, the medium in the T175 flask was changed with fresh DMEM+10% charcoal super-stripped serum. In a polypropylene tube, 2500 μL OptiMEM (Life Technologies, Cat #31985-062) was combined with expression plasmids for hFXR, hRXR, TK-ECRE-luc and pCMX-YFP. The tube was then briefly vortexed and incubated at room temperature for 5 minutes. Transfection reagent (X-tremeGENE HP from Roche, Cat #06 366 236 001) was added to the OptiMEM/plasmid mixture vortexed and incubated at room temperature for 20 minutes. Following incubation, the transfection reagent/DNA mixture complex was added to cells in the T175 flask and the cells were incubated at 37° C. in 5% CO2 for 18 h (O/N).
Compounds were serially diluted in DMSO and added to transfected CV-1 cells. The cells were then incubated for 18 hrs. The next day cells were lysed and examined for luminescence.

Sequence of hFXR (Q96RI1 whole entry): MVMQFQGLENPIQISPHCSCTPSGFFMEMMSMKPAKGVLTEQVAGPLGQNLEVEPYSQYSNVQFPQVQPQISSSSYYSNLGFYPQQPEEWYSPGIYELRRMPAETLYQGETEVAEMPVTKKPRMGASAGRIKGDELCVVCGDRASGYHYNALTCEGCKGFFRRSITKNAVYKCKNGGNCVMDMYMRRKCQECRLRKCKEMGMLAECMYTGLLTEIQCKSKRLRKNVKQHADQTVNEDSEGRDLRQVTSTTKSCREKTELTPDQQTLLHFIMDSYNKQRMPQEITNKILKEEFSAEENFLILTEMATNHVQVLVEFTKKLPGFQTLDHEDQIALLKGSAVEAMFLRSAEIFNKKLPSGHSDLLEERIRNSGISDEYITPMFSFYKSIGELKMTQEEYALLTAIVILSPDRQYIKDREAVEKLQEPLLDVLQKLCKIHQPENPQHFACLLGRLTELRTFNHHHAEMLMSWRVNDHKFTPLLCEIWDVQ
Sequence of hFXR (P19793 whole entry partner): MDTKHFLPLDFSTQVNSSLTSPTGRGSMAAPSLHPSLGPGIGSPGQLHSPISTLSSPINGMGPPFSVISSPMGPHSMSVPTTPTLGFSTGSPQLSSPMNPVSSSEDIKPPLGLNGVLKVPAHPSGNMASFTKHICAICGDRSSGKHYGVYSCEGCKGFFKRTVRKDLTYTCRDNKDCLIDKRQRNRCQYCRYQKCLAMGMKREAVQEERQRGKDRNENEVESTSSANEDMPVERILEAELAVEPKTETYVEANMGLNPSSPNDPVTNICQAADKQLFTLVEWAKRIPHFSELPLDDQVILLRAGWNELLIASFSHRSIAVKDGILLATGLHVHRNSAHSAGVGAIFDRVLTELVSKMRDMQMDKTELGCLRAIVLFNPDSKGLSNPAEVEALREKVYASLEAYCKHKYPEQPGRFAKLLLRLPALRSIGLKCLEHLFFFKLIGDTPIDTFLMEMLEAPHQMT

SMILES | EC50
COC(=O)/C=C/c1ccnc(N(Cc2ccc(-c3ccc(N(C)C)nc3)cc2)C(=O)C2CCCCC2)c1 [Compound 5, (E)-Methyl 3-(2-(N-(4-(6-(dimethylamino)pyridin-3-yl)benzyl)cyclohexane-carboxamido)pyridin-4-yl)acrylate] | 1000 to 10000 nM
COC(=O)c1cc2cccc(N(Cc3ccc(-c4ccc(N(C)C)cc4)cc3)C(=O)C3CCCCC3)c2[nH]1 [Compound 10, Methyl 7-(N-((4′-(dimethylamino)-[1,1′-biphenyl]-4-yl)methyl)cyclohexanecarboxamido)-1H-indole-2-carboxylate] | ≥ 10000 nM
COC(=O)c1cc2c(N(Cc3ccc(-c4ccc(N(C)C)cc4)cc3)C(=O)C3CCCCC3)cccc2[nH]1 [Compound 11, Methyl 4-(N-((4′-(dimethylamino)-[1,1′-biphenyl]-4-yl)methyl)cyclohexanecarboxamido)-1H-indole-2-carboxylate] | ≥ 10000 nM
COC(=O)c1cc2cccc(N(Cc3ccc(-c4ccc(N(C)C)cc4)cc3)C(=O)C3CCCCC3)c2s1 [Compound 12, Methyl 7-(N-((4′-(dimethylamino)-[1,1′-biphenyl]-4-yl)methyl)cyclohexanecarboxamido) benzo[b]thiophene-2-carboxylate] | 1000 to 10000 nM
COC(=O)c1ccc2c(N(Cc3ccc(-c4ccc(N(C)C)cc4)cc3)C(=O)C3CCCCC3)nccc2c1 [Compound 13, Methyl 1-(N-((4′-(dimethylamino)-[1,1′-biphenyl]-4-yl)methyl)cyclohexanecarboxamido) isoquinoline-6-carboxylate] | ≤ 1000 nM
CCOC(=O)c1cnc2c(N(Cc3ccc(-c4ccc(N(C)C)cc4)cc3)C(=O)C3CCCCC3)cccc2c1 [Compound 14, Ethyl 8-(N-((4′-(dimethylamino)-[1,1′-biphenyl]-4-yl)methyl)cyclohexanecarboxamido) quinoline-3-carboxylate] | 1000 to 10000 nM
COC(=O)c1ccc2ccc(N(Cc3ccc(-c4ccc(N(C)C)cc4)cc3)C(=O)C3CCCCC3)cc2c1 [Compound 15, Methyl 7-(N-((4′-(dimethylamino)-[1,1′-biphenyl]-4-yl)methyl)cyclohexanecarboxamido)-2-naphthoate] | ≥ 10000 nM
COC(=O)c1cc(N(Cc2ccc(-c3ccc(N(C)C)cc3)cc2)C(=O)C2CCCCC2)c2ccccc2c1 [Compound 16, Methyl 4-(N-((4′-(dimethylamino)-[1,1′-biphenyl]-4-yl)methyl)cyclohexanecarboxamido)-2-naphthoate] | ≥ 10000 nM
COC(=O)c1ccc2c(N(Cc3ccc(-c4ccc(N(C)C)cc4)cc3)C(=O)C(C)(C)C)nccc2c1 [Compound 17, Methyl 1-(N-((4-(dimethylamino)-[1,1′-biphenyl]-4-yl)methyl)pivalamido)isoquinoline-6-carboxylate] | 1000 to 10000 nM
COC(=O)/C=C/c1ccnc(N(C[C@H]2CC[C@H](c3ccc(OC)c(C)c3)CC2)C(=O)C2CCCCC2)c1 [Compound 18, (E)-Methyl 3-(2-(N-((trans-4-(4-methoxy-3-methylphenyl)cyclohexyl)methyl)cyclohexanecarboxamido)pyridin-4-yl)acrylate] | ≤ 1000 nM
COC(=O)c1ccc2c(N(Cc3ccc(-c4ccc(OC)c(C)c4)cc3)C(=O)CC(C)(C)C)nccc2c1 [Compound 19, Methyl 1-(N-((4′-methoxy-3′-methyl-[1,1′-biphenyl]-4-yl)methyl)-3,3-dimethylbutanamido)isoquinoline-6-carboxylate] | ≤ 1000 nM
COC(=O)c1ccc2c(N(Cc3ccc(-c4ccc(OC)c(C)c4)cc3)C(=O)C3CCCCC3)nccc2c1 [Compound 20, Methyl 1-(N-((4′-methoxy-3′-methyl-[1,1′-biphenyl]-4-yl)methyl)cyclohexanecarboxamido) isoquinoline-6-carboxylate] | ≤ 1000 nM
CCOC(=O)c1ccc2c(N(Cc3ccc(-c4ccc(OC)c(C)c4)cc3)C(=O)C3CCCCC3)nccc2c1 [Compound 21, Ethyl 1-(N-((4′-methoxy-3′-methyl-[1,1′-biphenyl]-4-yl)methyl)cyclohexanecarboxamido) isoquinoline-6-carboxylate] | ≤ 1000 nM
COc1ccc(-c2ccc(CN(C(=O)C3CCCCC3)c3nccc4cc(C(=O)OC(C)C)ccc34)cc2)cc1C [Compound 22, Isopropyl 1-(N-((4′-methoxy-3′-methyl-[1,1′-biphenyl]-4-yl)methyl)cyclohexanecarboxamido) isoquinoline-6-carboxylate] | ≤ 1000 nM
CCOC(=O)c1ccc2c(N(Cc3ccc(-c4ccc(OC)c(C)c4)cc3)C(=O)C3CCCCC3)cccc2n1 [Compound 23, Ethyl 5-(N-((4′-methoxy-3′-methyl-[1,1′-biphenyl]-4-yl)methyl)cyclohexanecarboxamido) quinoline-2-carboxylate] | 1000 to 10000 nM
COC(=O)c1ccc2c(N(Cc3ccc(-c4ccc(OC)c(C#N)c4)cc3)C(=O)CC(C)(C)C)nccc2c1 [Compound 24, Methyl 1-(N-((3′-cyano-4′-methoxy-[1,1′-biphenyl]-4-yl)methyl)-3,3-dimethylbutanamido)isoquinoline-6-carboxylate] | ≤ 1000 nM
COC(=O)c1ccc2c(N(Cc3ccc(-c4ccc(OC)c(C)c4)cc3)C(=O)C3CCCCCC3)nccc2c1 [Compound 25, Methyl 1-(N-((4′-methoxy-3′-methyl-[1,1′-biphenyl]-4-yl)methyl)cycloheptanecarboxamido) isoquinoline-6-carboxylate] | ≤ 1000 nM
COC(=O)c1ccc2c(N(Cc3ccc(-c4ccc(OC)c(C)c4)c(C#N)c3)C(=O)CC(C)(C)C)nccc2c1 [Compound 26, Methyl 1-(N-((2-cyano-4′-methoxy-3′-methyl-[1,1′-biphenyl]-4-yl)methyl)-3,3-dimethylbutanamido)isoquinoline-6-carboxylate] | ≤ 1000 nM
COC(=O)c1ccc2c(N(Cc3ccc(-c4ccc(OC)c(C)c4)cc3)C(C)=O)nccc2c1 [Compound 27, Methyl 1-(N-((4′-methoxy-3′-methyl-[1,1′-biphenyl]-4-yl)methyl)acetamido)isoquinoline-6-carboxylate] | ≥ 10000 nM
COC(=O)c1ccc2c(N(Cc3ccc(-c4ccc(OC)c(C)c4)cc3)C(=O)C(C)C)nccc2c1 [Compound 28, Methyl 1-(N-((4′-methoxy-3′-methyl-[1,1′-biphenyl]-4-yl)methyl)isobutyramido) isoquinoline-6-carboxylate] | ≤ 1000 nM
COC(=O)c1ccc2c(N(Cc3ccc(-c4ccc(OC)c(F)c4F)cc3)C(=O)CC(C)(C)C)nccc2c1 [Compound 29, Methyl 1-(N-((2′,3′-difluoro-4′-methoxy-[1,1′-biphenyl]-4-yl)methyl)-3,3-dimethylbutanamido)isoquinoline-6-carboxylate] | ≤ 1000 nM
COC(=O)c1ccc2c(N(Cc3ccc(-c4ccc(C)c(C#N)c4)cc3)C(=O)CC(C)(C)C)nccc2c1 [Compound 30, Methyl 1-(N-((3′-cyano-4′-methyl-[1,1′-biphenyl]-4-yl)methyl)-3,3-dimethylbutanamido)isoquinoline-6-carboxylate] | ≤ 1000 nM
COC(=O)c1ccc2c(N(Cc3ccc(-c4ccc(C#N)c(Cl)c4)cc3)C(=O)CC(C)(C)C)nccc2c1 [Compound 31, Methyl 1-(N-((3′-chloro-4′-cyano-[1,1′-biphenyl]-4-yl)methyl)-3,3-dimethylbutanamido)isoquinoline-6-carboxylate] | ≤ 1000 nM
COC(=O)c1ccc2c(N(Cc3ccc(-c4ccc(Cl)c(C#N)c4)cc3)C(=O)CC(C)(C)C)nccc2c1 [Compound 32, Methyl 1-(N-((4′-chloro-3′-cyano-[1,1′-biphenyl]-4-yl)methyl)-3,3-dimethylbutanamido)isoquinoline-6-carboxylate] | 1000 to 10000 nM
COC(=O)c1ccc2c(N(Cc3ccc(-c4ccc(C(F)(F)F)nc4)cc3)C(=O)CC(C)(C)C)nccc2c1 [Compound 33, Methyl 1-(3,3-dimethyl-N-(4-(6-(trifluoromethyl)pyridin-3-yl)benzyl)butanamido)isoquinoline-6-carboxylate] | 1000 to 10000 nM
COC(=O)c1ccc2c(N(Cc3ccc(-c4ccc5c(c4)OC(F)(F)O5)cc3)C(=O)CC(C)(C)C)nccc2c1 [Compound 34, Methyl 1-(N-(4-(2,2-difluorobenzo[d][1,3]dioxol-5-yl)benzyl)-3,3-dimethylbutanamido)isoquinoline-6-carboxylate] | ≤ 1000 nM
COC(=O)c1ccc2c(N(Cc3ccc(-c4cnc(OC)c(F)c4)cc3)C(=O)CC(C)(C)C)nccc2c1 [Compound 35, Methyl 1-(N-(4-(5-fluoro-6-methoxypyridin-3-yl)benzyl)-3,3-dimethylbutanamido)isoquinoline-6-carboxylate] | ≤ 1000 nM
COC(=O)c1ccc2c(N(Cc3ccc(-c4cnc(OC)c(Cl)c4)cc3)C(=O)CC(C)(C)C)nccc2c1 [Compound 36, Methyl 1-(N-(4-(5-chloro-6-methoxypyridin-3-yl)benzyl)-3,3-dimethylbutanamido)isoquinoline-6-carboxylate] | ≤ 1000 nM
COC(=O)c1ccc2c(N(Cc3ccc(-c4cnc(OC)c(C)c4)cc3)C(=O)CC(C)(C)C)nccc2c1 [Compound 37, Methyl 1-(N-(4-(6-methoxy-5-methylpyridin-3-yl)benzyl)-3,3-dimethylbutanamido)isoquinoline-6-carboxylate] | ≤ 1000 nM
COC(=O)c1ccc2c(N(Cc3ccc(-c4ccc(N(C)C)nc4)cc3)C(=O)CC(C)(C)C)nccc2c1 [Compound 38, Methyl 1-(N-(4-(6-(dimethylamino)pyridin-3-yl)benzyl)-3,3-dimethylbutanamido)isoquinoline-6-carboxylate] | ≤ 1000 nM
